Key:
Type in all cases: biochemical
[1] = molecular target: T1, Aβ 1-42 fibrils (Homo sapiens, UniProt P05067); assay: Thioflavin T fluorometry, disruption of pre-formed Aβ 1-42 fibrils (Example 11); settings: 30 μg pre-fibrillized Aβ 1-42, 37° C., 3 days
T1 construct: purchased Bachem Inc
Text: In one study, Thioflavin T fluorometry was used to determine the effects of the compounds, and of EDTA (as a negative control). In this assay Thioflavin T binds specifically to fibrillar amyloid, and this binding produces a fluorescence enhancement at 485 nm that is directly proportional to the amount of amyloid fibrils formed. The higher the fluorescence, the greater the amount of amyloid fibrils formed (Naki et al., Lab. Invest. 65:104-110, 1991; Levine III, Protein Sci. 2:404-410, 1993; Amyloid: Int. J. Exp. Clin. Invest. 2:1-6, 1995).
(§1) Following 3-days of co-incubation, 50 μl of each incubation mixture was transferred into a 96-well microtiter plate containing 150 μl of distilled water and 50 μl of a Thioflavin T solution (i.e. 500 mM Thioflavin T in 250 mM phosphate buffer, pH 6.8). The fluorescence was read at 485 nm (444 nm excitation wavelength) using an ELISA plate fluorometer after subtraction with buffer alone or compound alone, as blank.

[2] = molecular target: T2, α-synuclein fibrils (Homo sapiens, UniProt P37840); assay: Thioflavin T fluorometry, disruption of pre-formed α-synuclein fibrils (Example 12); settings: 3 days; for disruption/disassembly of pre-formed α-synuclein fibrils, in words: Thioflavin T fluorometry, all concentrations tested; for % Inhibition α-synuclein (result ± S.D.), Thioflavin T fluorometry: 30 μg pre-fibrillized α-synuclein, 37° C.
T2 construct: purchased rPeptide
Experimental: In this assay, Thioflavin T binds specifically to α-synuclein fibrils, and this binding produces a fluorescence enhancement at 485 nm that is directly proportional to the amount of α-synuclein fibrils present. The higher the fluorescence, the greater the amount of α-synuclein fibrils present (Naki et al, Lab. Invest. 65:104-110, 1991; Levine III, Protein Sci. 2:404-410, 1993; Amyloid: Int. J. Exp. Clin. Invest. 2:1-6, 1995).
as §1, with “In this study, 30 μg of pre-fibrillized α-synuclein (rPeptide) was incubated at 37° C. for 3 days either alone or in the presence of compounds DC-0051-F1, F2, F3, F4, F5, F6 or EDTA (at α-synuclein:test compound weight ratios of 1:1, 1:0.1, 1:0.01 or 1:0.001). Following” for “Following”

[3] = molecular target: T2, α-synuclein fibrils; assay: Congo red binding assay, α-synuclein fibrils (Example 12); settings: 3-day incubation
Experimental: (§2) In the Congo red binding assay, the ability of a given test compound to alter amyloid (in this case, α-synuclein) binding to Congo red is quantified. In this assay, α-synuclein and test compounds were incubated for 3 days and then vacuum filtered through a 0.2 μm filter. The amount of α-synuclein retained in the filter was then quantitated following staining of the filter with Congo red. After appropriate washing of the filter, any lowering of the Congo red color on the filter in the presence of the test compound (compared to the Congo red staining of the amyloid protein in the absence of the test compound) was indicative of the test compound's ability to diminish/alter the amount of aggregated and congophilic α-synuclein.
In one study, the ability of α-synuclein fibrils to bind Congo red in the absence or presence of increasing amounts of compounds DC-0051-F1, F2, F3, F4, F5, F6 and EDTA (at α-synuclein:test compound weight ratios of 1:1, 1:0.1, 1:0.01 or 1:0.001) was determined.

[4] = molecular target: T1, Aβ 1-42 fibrils; assay: Congo red binding assay, Aβ 1-42 fibrils (Example 11); settings: 3-day incubation
Experimental: as §2, with “a” for “a given”, “Aβ)” for “α-synuclein)”, “Aβ 1-42” for “α-synuclein”, “Aβ.” for “α-synuclein.”
In one study, the ability of Aβ fibrils to bind Congo red in the absence or presence of increasing amounts of the compounds or EDTA (at Aβ:test compound weight ratios of 1:1, 1:0.1, 1:0.01 or 1:0.001) was determined.

[5] = Aβ:test compound wt/wt ratio 1:0.001
[6] = Aβ:test compound wt/wt ratio 1:0.01
[7] = Aβ:test compound wt/wt ratio 1:0.1
[8] = Aβ:test compound wt/wt ratio 1:1
[9] = α-synuclein:test compound wt/wt ratio 1:0.001
[10] = α-synuclein:test compound wt/wt ratio 1:0.01
[11] = α-synuclein:test compound wt/wt ratio 1:0.1
[12] = α-synuclein:test compound wt/wt ratio 1:1

T1 sequence (P05067 672-713): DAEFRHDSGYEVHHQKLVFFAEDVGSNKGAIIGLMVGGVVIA

| SMILES | % Inhibition Aβ (result ± S.D.), Thioflavin T fluorometry [1, 5] [%] | % Inhibition Aβ (result ± S.D.), Thioflavin T fluorometry [1, 6] [%] | % Inhibition Aβ (result ± S.D.), Thioflavin T fluorometry [1, 7] [%] | % Inhibition Aβ (result ± S.D.), Thioflavin T fluorometry [1, 8] [%] | disruption/disassembly of pre-formed α-synuclein fibrils, in words [2] | % Inhibition α-synuclein (result ± S.D.), Thioflavin T fluorometry [2, 9] [%] | % Inhibition α-synuclein (result ± S.D.), Thioflavin T fluorometry [2, 10] [%] | % Inhibition α-synuclein (result ± S.D.), Thioflavin T fluorometry [2, 11] [%] | % Inhibition α-synuclein (result ± S.D.), Thioflavin T fluorometry [2, 12] [%] | % Inhibition α-synuclein (result ± S.D.), Congo red binding [3, 9] [%] | % Inhibition α-synuclein (result ± S.D.), Congo red binding [3, 10] [%] | % Inhibition α-synuclein (result ± S.D.), Congo red binding [3, 11] [%] | % Inhibition α-synuclein (result ± S.D.), Congo red binding [3, 12] [%] | % Inhibition Aβ (result ± S.D.), Congo red binding [4, 5] [%] | % Inhibition Aβ (result ± S.D.), Congo red binding [4, 6] [%] | % Inhibition Aβ (result ± S.D.), Congo red binding [4, 7] [%] | % Inhibition Aβ (result ± S.D.), Congo red binding [4, 8] [%] |
| --- | --- | --- | --- | --- | --- | --- | --- | --- | --- | --- | --- | --- | --- | --- | --- | --- | --- |
| O=C(Nc1cc(O)c(O)c(F)c1)c1ccc(O)c(O)c1 [DC-0051-F4, N-(3-fluoro-4,5-dihydroxyphenyl)-3,4-dihydroxybenzamide] | 16.0 ± 6.64 | 33.4 ± 2.09 | 79.8 ± 0.77 | 99.7 ± 0.58 | dose-dependent disruption/disassembly | 6.1 ± 9.44 | 40.6 ± 1.49 | 94.3 ± 1.22 | 100.0 ± 2.84 | 6.1 ± 8.92 | 0.0 ± 3.44 | 18.0 ± 0.58 | 64.8 ± 5.08 | 4.3 ± 11.81 | 8.8 ± 5.07 | 10.9 ± 5.05 | 71.0 ± 2.39 |
| O=C(Nc1ccc(O)c(O)c1F)c1ccc(O)c(O)c1 [DC-0051-F6, N-(2-fluoro-3,4-dihydroxyphenyl)-3,4-dihydroxybenzamide] | 9.6 ± 0.96 | 36.8 ± 3.43 | 88.0 ± 1.09 | 99.4 ± 0.86 | dose-dependent disruption/disassembly | 4.2 ± 5.02 | 56.2 ± 1.49 | 94.7 ± 0.68 | 100.0 ± 1.98 | 0.0 ± 4.20 | 1.4 ± 5.69 | 29.9 ± 2.41 | 59.8 ± 3.62 | 3.7 ± 3.24 | 6.8 ± 1.51 | 18.3 ± 5.32 | 68.0 ± 2.11 |
| O=C(Nc1ccc(O)c(O)c1)c1cc(O)c(O)cc1F [DC-0051-F2, N-(3,4-dihydroxyphenyl)-2-fluoro-4,5-dihydroxy benzamide] | 17.1 ± 4.32 | 53.7±6.29 | 95.9±0.88 | 99.6 ± 0.55 | dose-dependent disruption/disassembly | 15.9 ± 7.20 | 61.1±1.37 | 94.7±2.57 | 100.0 ± 1.49 | 0.0 ± 6.71 | 3.7 ± 2.83 | 36.5±53.4 | 67.8±3.52 | 4.9 ± 7.88 | 0.5 ± 5.24 | 49.9±9.13 | 80.1±3.79 |
| O=C(Nc1ccc(O)c(O)c1)c1ccc(O)c(O)c1F [DC-0051-F1, 3,4-Dihydroxy-2-fluoro-N-(3,4-dihydroxyphenyl)benzamide] | 15.6 ± 2.01 | 37.1 ± 1.44 | 91.3 ± 1.39 | 98.7 ± 0.38 | dose-dependent disruption/disassembly | 13.7 ± 6.06 | 58.4 ± 5.06 | 90.4 ± 2.07 | 100.0 ± 3.14 | 0.0 ± 3.42 | 3.8 ± 5.82 | 32.9±2.97 | 69.8±2.67 | 3.7 ± 4.36 | 2.2 ± 7.70 | 27.5±2.39 | 80.1±2.61 |
| O=C(Nc1ccc(O)c(O)c1)c1cc(O)c(O)c(F)c1 [DC-0051-F3, 4,5-Dihydroxy-3-fluoro-N-(3,4-dihydroxyphenyl)benzamide] | 15.1 ± 3.81 | 34.6 ± 2.21 | 92.3 ± 0.19 | 99.0 ± 0.77 | dose-dependent disruption/disassembly | 13.8 ± 5.12 | 59.6±6.39 | 92.5±2.35 | 96.8 ± 2.82 | 0.0 ± 3.93 | 2.6 ± 4.90 | 23.3 ± 2.24 | 55.9 ± 2.65 | 0.0 ± 2.64 | 0.0 ± 3.25 | 23.3 ± 5.01 | 74.5 ± 2.69 |

Reference: patent US20110104055A1, “SUBSTITUTED N-ARYL BENZAMIDES AND RELATED COMPOUNDS FOR TREATMENT OF AMYLOID DISEASES AND SYNUCLEINOPATHIES” (priority 2002, published 2011)
